Measurements reported in PubChem BioAssay AID1033 (Sanford-Burnham Center for Chemical Genomics, 2008).
Activity calls are given as the source filed them. How the calls were made is not given here.

Molecular target: Chaperone protein DnaK (Escherichia coli (strain K12)) (UniProt P0A6Y8)
Assay: E. coli DnaK SBD ligand binding – biophysical, NMR, chaperone (AID 1033)
Conditions: Purified DnaK SBD

Chaperone protein DnaK (Escherichia coli (strain K12)), sequence (P0A6Y8 whole entry, looked up): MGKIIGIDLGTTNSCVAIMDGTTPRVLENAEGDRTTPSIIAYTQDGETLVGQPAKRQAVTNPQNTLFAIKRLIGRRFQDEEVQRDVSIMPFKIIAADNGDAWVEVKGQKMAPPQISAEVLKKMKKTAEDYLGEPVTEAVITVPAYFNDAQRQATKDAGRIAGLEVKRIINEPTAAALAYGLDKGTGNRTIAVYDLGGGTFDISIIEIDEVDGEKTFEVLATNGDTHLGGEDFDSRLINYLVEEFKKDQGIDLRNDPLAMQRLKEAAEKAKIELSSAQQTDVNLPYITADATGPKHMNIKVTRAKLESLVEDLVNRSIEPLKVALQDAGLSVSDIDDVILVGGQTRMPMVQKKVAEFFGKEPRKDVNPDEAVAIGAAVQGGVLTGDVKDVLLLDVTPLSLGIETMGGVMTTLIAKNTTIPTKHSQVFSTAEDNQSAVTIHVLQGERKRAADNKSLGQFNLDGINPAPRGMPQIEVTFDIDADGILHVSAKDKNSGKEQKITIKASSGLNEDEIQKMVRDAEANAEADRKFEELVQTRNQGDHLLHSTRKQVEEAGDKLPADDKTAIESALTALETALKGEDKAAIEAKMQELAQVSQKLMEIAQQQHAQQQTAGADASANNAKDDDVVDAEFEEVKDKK

## CC1CCC2(OC1)OC1CC3C4CCC5C[C@@H](O)CCC5(C)C4=CCC3(C)C1[C@@H]2C (stereo partly drawn)
  Kd: > 4 mM (inactive)

## [O-][n+]1onc2c1CCc1c-2nn(-c2ccccc2)[n+]1[O-]
  Kd: > 4 mM (inactive)

## Nc1ccc(S(=O)(=O)Nc2nccs2)cc1
  Kd: > 4 mM (inactive)

## COc1cc(/C=C2\SC(=S)NC2=O)ccc1O
  Kd: > 4 mM (inactive)

## O=c1oc2c(O)c(O)cc3c(=O)oc4c(O)c(O)cc1c4c23
  Kd: > 4 mM (inactive)

## CS(=O)(=O)N1CCC(C(=O)NC2CCCC2)CC1
  Kd: > 4 mM (inactive)

## Cc1cc(C(=O)N2CCOCC2)c(C)o1
  Kd: > 4 mM (inactive)

## CC1CCC2(OC1)OC1CC3C4CC[C@H]5C[C@@H](O)CC[C@]5(C)C4CC(=O)[C@]3(C)C1C2C (stereo partly drawn)
  Kd: > 4 mM (inactive)

## O=C(Cc1c(F)cccc1Cl)Nc1ccon1
  Kd: > 4 mM (inactive)

## O=C(c1ccc2c(c1)OCO2)N1CCC2(CC1)OCCO2
  Kd: > 4 mM (inactive)

## O=C(Nc1ccccn1)c1cc(-n2cnnc2)ccc1Cl
  Kd: > 4 mM (inactive)

## NCc1ccc(-n2cccc2)cc1
  Kd: > 4 mM (inactive)

## CCOC(=O)CC1Sc2ccccc2NC1=S (stereo not drawn)
  Kd: > 4 mM (inactive)

## Cn1c(=O)c2c(ncn2C)n(C)c1=O
  Kd: > 4 mM (inactive)

## O=C1NC(=O)/C(=C\c2ccncc2)S1
  Kd: > 4 mM (inactive)

## Cc1cc(N2CCCC2=O)c(N)cc1N
  Kd: > 4 mM (inactive)

## OCCOc1ccc(C2=NCCO2)cc1
  Kd: > 4 mM (inactive)

## O=C(O)CN1CCN(C2CCCC2)CC1
  Kd: > 4 mM (inactive)

## CC1SC(=NC(=O)c2ccco2)NC1=O (stereo not drawn)
  Kd: > 4 mM (inactive)

## CC(=O)Nc1ccc(NC(=O)C2CC2)cc1
  Kd: > 4 mM (inactive)

## N[C@@H](C(=O)O)[C@@H](O)[C@H](O)[C@H](O)CO
  Kd: > 4 mM (inactive)

## O=C1CS/C(=N/N=C/c2cccs2)N1
  Kd: > 4 mM (inactive)

## c1ccc(-c2noc(-c3cccnc3)n2)nc1
  Kd: > 4 mM (inactive)

## CC(=O)O[C@@H]1CC2C(C)(C)[C@@H](O)CC[C@]2(C)C2CC[C@@]3(C)[C@H](c4ccoc4)OC(=O)[C@H]4O[C@]43[C@@]21C (stereo partly drawn)
  Kd: > 4 mM (inactive)

## Cn1nc(-c2cccs2)cc1N
  Kd: > 4 mM (inactive)

## O=c1c2ccccc2nc(-c2ccco2)n1-c1nccs1
  Kd: > 4 mM (inactive)

## Cc1ccc(C(=O)N2CC(=O)NC(=O)C2)cc1
  Kd: > 4 mM (inactive)

## O=S1(=O)CCC(N2CCCCC2)C1 (stereo not drawn)
  Kd: > 4 mM (inactive)

## O=C1C2C3C=CC(O3)C2C(=O)N1c1ccccc1 (stereo not drawn)
  Kd: > 4 mM (inactive)

## OCc1cc(F)cc2c1OCOC2
  Kd: > 4 mM (inactive)

## CN(C)c1ccc2c(=O)[nH][nH]c(=O)c2c1
  Kd: > 4 mM (inactive)

## c1cc(C(N2CCOCC2)N2CCOCC2)ccn1
  Kd: > 4 mM (inactive)

## Nc1ccc2ncsc2c1
  Kd: > 4 mM (inactive)

## O=c1c(O)cccc2cc(O)c(O)c(O)c12
  Kd: > 4 mM (inactive)

## O=C(NN1C(=O)c2ccccc2C1=O)c1cccs1
  Kd: > 4 mM (inactive)

## Oc1cccc2[nH]ccc12
  Kd: > 4 mM (inactive)

## Nc1ccc(C2SCCS2)cc1
  Kd: > 4 mM (inactive)

## CC1CCN(S(=O)(=O)N(C)C)CC1
  Kd: > 4 mM (inactive)

## COc1ccc2nc(NC(=O)c3cnccn3)sc2c1
  Kd: > 4 mM (inactive)

## Cc1ccn(S(=O)(=O)c2ccc(F)cc2)n1
  Kd: > 4 mM (inactive)

## Nc1cc(=O)[nH]c(SCC(=O)NCc2ccccc2)n1
  Kd: > 4 mM (inactive)

## O=c1ccc2cc(O)c(O)cc2o1
  Kd: > 4 mM (inactive)

## CC(C)(C)CC(=O)NC1=NCCS1
  Kd: > 4 mM (inactive)

## Nc1cc(N)nc(SCc2cccnc2)n1
  Kd: > 4 mM (inactive)

## O=C(Nc1ccccc1)c1cnc2n(c1=O)CCS2
  Kd: > 4 mM (inactive)

## CCOC(=O)c1c[nH]c2c(F)cccc2c1=O
  Kd: > 4 mM (inactive)

## Nc1ccc(-n2cccc2)cc1
  Kd: > 4 mM (inactive)

## NC(=O)c1ccc(N2C(=O)CCC2=O)cc1Cl
  Kd: > 4 mM (inactive)

## O=c1cc(CO)oc(CN2CCCCC2)c1O
  Kd: > 4 mM (inactive)

## Cc1c(C)n2c(SCC(N)=O)nnc2[nH]c1=O
  Kd: > 4 mM (inactive)

## NC1=NC(=O)/C(=C\c2cccc(C(=O)O)c2)S1
  Kd: > 4 mM (inactive)

## CC1(C)CC(NC(=O)/C=C/C(=O)O)CC(C)(C)N1
  Kd: > 4 mM (inactive)

## C=CCCCCCCCCCCCC(O)CC(O)COC(C)=O (stereo not drawn) (tested in a mixture with another compound)
  Kd: > 4 mM (inactive)

## NCc1cccc(-n2cccc2)c1
  Kd: > 4 mM (inactive)

## N#Cc1cccc(Cn2nnc(-c3ccccc3)n2)c1
  Kd: > 4 mM (inactive)

## CN1C(=O)C(Cc2c[nH]c3ccccc23)C(=O)N(C)C1=O
  Kd: > 4 mM (inactive)

## OCc1ccc(CN2CCOCC2)cc1
  Kd: > 4 mM (inactive)

## OCc1ccc(-c2ccccn2)s1
  Kd: > 4 mM (inactive)

## Cc1ccc(SCc2nc(-c3cccnc3)no2)cc1
  Kd: > 4 mM (inactive)

## CCOC(=O)c1[nH]cnc1C(=O)OC(C)C
  Kd: > 4 mM (inactive)

## Oc1ccc(-c2n[nH]c(=S)n2Cc2ccco2)cc1
  Kd: > 4 mM (inactive)

## COc1ccc2nc(SCC(N)=O)[nH]c2c1
  Kd: > 4 mM (inactive)

## C[n+]1ccn(C/C(N)=N/O)c1
  Kd: > 4 mM (inactive)

## Cc1cc(O)c2c(c1)C(=O)c1cccc(O)c1C2=O
  Kd: > 4 mM (inactive)

## Nc1nc(NCc2ccco2)nn1-c1ccccc1
  Kd: > 4 mM (inactive)

## Clc1ccc(SCCn2cncn2)cc1
  Kd: > 4 mM (inactive)

## O=C(NC1=NCCS1)c1ccc(Cl)s1
  Kd: > 4 mM (inactive)

## COc1cc(O)c(C(C)=O)c(OC)c1
  Kd: > 4 mM (inactive)

## CC1(C)NCCN2C(=O)CSC21 (stereo not drawn)
  Kd: > 4 mM (inactive)

## CC(=O)Nc1ccc(-c2ccc3nncn3n2)cc1
  Kd: > 4 mM (inactive)

## O=C(Nc1ncc2ccccc2n1)c1cccs1
  Kd: < 0.2 mM

## Cc1nc(SCC(=O)c2c[nH]c3ccccc23)n[nH]1
  Kd: > 4 mM (inactive)

## CCn1nnc(NC(=O)c2cc3ccccc3o2)n1
  Kd: > 4 mM (inactive)

## COc1cc(OC)c2c(=O)c(OC)c(-c3ccc(OC)c(OC)c3)oc2c1
  Kd: > 4 mM (inactive)

## Cc1ccc(SCc2nc(-c3ccncc3)no2)cc1
  Kd: > 4 mM (inactive)

## Cc1cc2nc3c(=O)[nH]c(=O)nc-3n(CC(O)C(O)C(O)CO)c2cc1C (stereo not drawn)
  Kd: > 4 mM (inactive)

## CC(=O)Nc1ccc(N2CCOCC2)cc1
  Kd: > 4 mM (inactive)

## CC(C)(C)c1ccc(SCC(N)=O)cc1
  Kd: > 4 mM (inactive)

## C[C@H](CCC(=O)O)[C@H]1CCC2C3C(CC[C@@]21C)[C@@]1(C)CC[C@@H](O)C[C@H]1C[C@H]3O (stereo partly drawn)
  Kd: > 4 mM (inactive)

## O=C1NCCCC1C(=O)N/N=C/c1ccccc1 (stereo not drawn)
  Kd: > 4 mM (inactive)

## COc1cc([C@H]2Oc3cc([C@H]4Oc5cc(O)cc(O)c5C(=O)[C@@H]4O)ccc3O[C@@H]2CO)ccc1O
  Kd: > 4 mM (inactive)

## O=[N+]([O-])c1cccc2c1nnn2C(CO)OCCO (stereo not drawn)
  Kd: > 4 mM (inactive)

## Cc1noc(C)c1C(=O)N1CCN(c2ncccn2)CC1
  Kd: > 4 mM (inactive)

## c1ccc(Cn2cccc2)nc1
  Kd: > 4 mM (inactive)

## O=C(/C=C/c1ccccc1)c1ccc(O[C@@H]2O[C@H](CO)[C@@H](O)[C@H](O)[C@H]2O)cc1O
  Kd: > 4 mM (inactive)

## COC(=O)Nc1nnc(-c2ccncc2)s1
  Kd: > 4 mM (inactive)

## Cn1cnnc1SCCCNC(=O)Nc1ncccn1
  Kd: > 4 mM (inactive)

## O=C1C=C(Nc2ccccc2O)c2ccccc2C1=O
  Kd: > 4 mM (inactive)

## CN1CCc2c(sc(N)c2C#N)C1
  Kd: > 4 mM (inactive)

## CCOC(=O)CC1NCCNC1=O (stereo not drawn)
  Kd: > 4 mM (inactive)

## C[C@@H]1C(=O)O[C@H]2[C@H]1CC[C@@]1(C)C=CC(=O)[C@@]3(C)O[C@@]213
  Kd: > 4 mM (inactive)

## OCc1nc2ccccc2s1
  Kd: > 4 mM (inactive)

## Cc1cc(C(=O)N2CCN(c3ncccn3)CC2)cs1
  Kd: > 4 mM (inactive)

## Cc1ccc(C(=O)N2CCC(C(N)=O)CC2)c(Cl)c1
  Kd: > 4 mM (inactive)

## O=C(c1ccc(F)cc1)N1CCOCC1
  Kd: > 4 mM (inactive)

## Cc1cc(=O)n(CC(C)C)c(O)c1C#N
  Kd: > 4 mM (inactive)

## O=C(O)C1Cc2ccccc2O1 (stereo not drawn)
  Kd: > 4 mM (inactive)

## NC(=O)C1CCN(C(=O)Nc2ccccc2)CC1
  Kd: > 4 mM (inactive)

## O=C1c2ccccc2C(=O)N1OCc1ccccc1
  Kd: > 4 mM (inactive)

## O=C(O)/C=C(\CC(=O)O)C(=O)O
  Kd: > 4 mM (inactive)

## COc1ccc2c(c1OC)C(=O)O[C@@H]2[C@@H]1c2cc3c(cc2CCN1C)OCO3
  Kd: > 4 mM (inactive)

## O=C(O)c1ccc(-n2cccn2)cc1
  Kd: > 4 mM (inactive)

## Nc1nc(=S)n2c(n1)oc1ccccc12
  Kd: > 4 mM (inactive)

## CC1=C2C(=CO[C@H](C)[C@H]2C)C(=O)C(C(=O)O)=C1O
  Kd: > 4 mM (inactive)

## CN(Cc1nc2ccccc2n1C)C(=O)c1cccs1
  Kd: > 4 mM (inactive)

## COC(=O)C[C@@H]1C2(C)C(=O)[C@@H](CC3=C4CC(=O)O[C@@H](c5ccoc5)[C@]4(C)CCC32)[C@H](OC(C)=O)C1(C)C (stereo partly drawn)
  Kd: > 4 mM (inactive)

## O=C(Cn1cnc2ccccc2c1=O)N1CCOCC1
  Kd: > 4 mM (inactive)

## O=c1c(-c2cccs2)[n+]([O-])c2ccccc2n1O
  Kd: > 4 mM (inactive)

## Cc1ccccc1CSc1nncn1N
  Kd: > 4 mM (inactive)

## Cc1cc(C(=O)Nn2cnnc2)cs1
  Kd: > 4 mM (inactive)

## O=C(O)c1cc2ccccc2cn1
  Kd: > 4 mM (inactive)

## Cc1ccc2[nH]cc(CCN)c2c1
  Kd: > 4 mM (inactive)

## O=C(NC(O)C(=O)c1ccccc1)c1ccco1 (stereo not drawn)
  Kd: > 4 mM (inactive)

## CCC(=O)Nc1cccc(NC(C)=O)c1
  Kd: > 4 mM (inactive)

## O=C(/C=C/c1ccc(O)c(O)c1)O[C@@H]1C[C@](O)(C(=O)O)C[C@@H](O)[C@H]1O
  Kd: > 4 mM (inactive)

## O=C(NCC1CCCCC1)c1ccco1
  Kd: > 4 mM (inactive)

## COc1c(-c2coc3cc4c(cc3c2=O)CC(O)C(C)(C)O4)ccc2c1C=CC(C)(C)O2 (stereo not drawn)
  Kd: > 4 mM (inactive)

## Nc1ncnc(Nc2ccccc2C(F)(F)F)n1
  Kd: > 4 mM (inactive)
